This experiment has as its target NAMPT (Mus musculus, UniProt Q99KQ4). Nature of the experiment: co-crystal structure. The format is binding.

NAMPT, sequence (Q99KQ4 whole entry): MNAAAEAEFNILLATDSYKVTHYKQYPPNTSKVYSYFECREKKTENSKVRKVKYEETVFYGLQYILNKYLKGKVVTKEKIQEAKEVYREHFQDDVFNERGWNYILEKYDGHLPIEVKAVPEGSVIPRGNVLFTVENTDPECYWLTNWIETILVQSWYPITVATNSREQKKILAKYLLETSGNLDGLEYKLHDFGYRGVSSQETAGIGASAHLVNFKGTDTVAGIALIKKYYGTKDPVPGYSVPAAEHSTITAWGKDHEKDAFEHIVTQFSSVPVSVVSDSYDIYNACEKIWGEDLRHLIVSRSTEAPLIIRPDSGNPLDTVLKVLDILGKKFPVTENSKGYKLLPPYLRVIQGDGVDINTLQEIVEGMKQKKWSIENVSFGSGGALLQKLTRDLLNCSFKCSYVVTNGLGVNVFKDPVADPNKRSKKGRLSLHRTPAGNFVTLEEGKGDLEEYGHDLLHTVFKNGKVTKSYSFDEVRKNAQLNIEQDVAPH

Take `O=C(NCc1ccc([C@@H]2O[C@H](COP(=O)(O)O)[C@@H](O)[C@H]2O)cc1)Nc1ccc(S(=O)(=O)c2ccccc2)cc1` [9a, ((2R,3S,4R,5S)-3,4-Dihydroxy-5-(4-((3-(4-(phenylsulfonyl)phenyl)ureido)methyl)phenyl)tetrahydrofuran-2-yl)methyldihydrogenphosphate]: the co-crystal structure result is “Compound 9a bound to dimeric NAMPT (PDB: 7Q8T)”.

The values above are taken from paper PMC9978853 (Acta Pharmaceutica Sinica. B, 2022).
